Assay results taken from US20110112110A1, “ANTIPROLIFERATIVE COMPOUNDS AND THERAPEUTIC USES THEREOF” (UNIVERSITA' DEGLISTUDI DI MILANO- BICOCCA, priority 2008, published 2011).
Read-outs that look alike come from different tables or passages of the source.

Experiments:
Recombinant ALK kinase = biological target: T1, Recombinant ALK kinase (Homo sapiens, UniProt Q9UM73); assay: ELISA-based in vitro kinase assay (ALK kinase inhibitory activity); assay type: biochemical
T1 construct: His tag (from pBlueBacHis2C vector); made in house; host or cells: insect cells, baculovirus
Experimental: (§1) Method: ELISA-Based In Vitro Kinase Assay
Recombinant ALK kinase was expressed in […] insect cells using the pBlueBacHis2C baculovirus vector system and purified using an anion exchange Fast Flow Q-sepharose column (Amersham-Pharmacia Biotech) followed by HiTrap™-nickel affinity column (Amersham-Pharmacia Biotech). Purified ALK protein was used to screen inhibitors in the ELISA-based kinase assay. […] Wells were then washed with 200 μl of wash buffer (PBS-Tween 0.05%) and left to dry for at least 2 hours at 37° C. The kinase reaction was performed in the presence of 50 mM Tris pH 7.5, 5 mM MnCl2, 5 mM MgCl2, 0.3 mM ATP and purified rALK in a total volume of 100 μl/well at 30° C. for 15 minutes. For inhibitor testing the reaction mix was preincubated with the inhibitor or solvent control for 10 mins at room temperature before transferring to the ELISA plate. After the reaction wells were washed 5 times with 200 μl of wash buffer. Phosphorylated peptide was detected using 100 μl/well of a mouse monoclonal anti-phosphotyrosine antibody (clone 4G10 UpstateBiotech Ltd) diluted 1:2000 in PBS+4% BSA. After 30 minutes incubation at room temperature the antibody was removed and wells were washed as described above. 100 μl of a secondary antibody (anti-mouse IgG, Horseradish Peroxidase linked whole antibody, Amersham Pharmacia Biotech) diluted 1:1000 in PBS+4% BSA was added to each well and the plate was incubated again for 30 minutes at room temperature before washing as above. The plate was developed using 100 μl/well TMB Substrate Solution (Endogen) and the reaction was stopped by adding an equal volume of H2SO4 0.36 M. Finally, the absorbance was read at 450 nm using an Ultrospec® 300 spectrophotometer (Amersham-Pharmacia Biotech).

Recombinant Abl T315I = biological target: T2, Recombinant Abl T315I (Homo sapiens, UniProt P00519, T315I); assay: ELISA-based in vitro kinase assay (Abl T315I mutant kinase inhibitory activity); assay type: biochemical; conditions: purified Abl T315I, 0.3 mM ATP, peptide substrate
T2 construct: His tag (from pBlueBacHis2C vector); made in house; host or cells: Sf9 insect cells, baculovirus
Experimental: as §1
Recombinant Abl T315I protein was expressed in Sf9 cells using the pBlueBacHis2C baculovirus expression vector. Abl T315I was purified using an anion exchange Fast Flow Q-sepharose column (Amersham-Pharmacia Biotech) followed by HiTrap™-nickel affinity column (Amersham-Pharmacia Biotech). Purified Abl T3151 was used in the ELISA-based kinase assay to screen inhibitors as described above. The kinase reaction was performed in the presence of 50 mM Tris pH 7.5, 1 mM MnCl2, 5 mM MgCl2, 0.3 mM ATP, peptide substrate ([…]) and purified Abl T315I.

[1] = biological target: T3, BaF3 cells transformed with NPM/ALK (Homo sapiens, UniProt Q9UM73); assay: Tritiated thymidine uptake cell proliferation assay; assay type: cell-based; conditions: read-out: IC50 values on the proliferation of BaF3 cells transformed with NPM/ALK; 72 h incubation, 3[H]-thymidine uptake
T3 construct: fused on or other part: P06748 (Nucleophosmin)
Experimental: Method: Tritiated Thymidine Uptake Cell Proliferation Assay
BaF3 cells, transformed with the oncogenic fusion protein NPM/ALK, were seeded in U-bottomed 96-well plates at 10 000 cells/well in a volume of 100 μL in supplemented medium. Serial dilutions of inhibitors were added to the appropriate wells and volumes adjusted to 200 μL. Controls were treated with the equivalent volume of vehicle, DMSO, alone. Plates were incubated at 37° C. for 72 h. ^3[H-]-thymidine (1 μCi/well) was added for the last 16 h of incubation. Cells were harvested on to glass filters and ^3[H]-thymidine incorporation was measured using a scintillation counter (1430 MicroBeta, Wallac, Turku, Finland).

[2] = purified rALK, 0.3 mM ATP, ALK peptide substrate, 30° C. 15 minutes, read-out: IC50 values on ALK

T1 sequence (Q9UM73 19-1620): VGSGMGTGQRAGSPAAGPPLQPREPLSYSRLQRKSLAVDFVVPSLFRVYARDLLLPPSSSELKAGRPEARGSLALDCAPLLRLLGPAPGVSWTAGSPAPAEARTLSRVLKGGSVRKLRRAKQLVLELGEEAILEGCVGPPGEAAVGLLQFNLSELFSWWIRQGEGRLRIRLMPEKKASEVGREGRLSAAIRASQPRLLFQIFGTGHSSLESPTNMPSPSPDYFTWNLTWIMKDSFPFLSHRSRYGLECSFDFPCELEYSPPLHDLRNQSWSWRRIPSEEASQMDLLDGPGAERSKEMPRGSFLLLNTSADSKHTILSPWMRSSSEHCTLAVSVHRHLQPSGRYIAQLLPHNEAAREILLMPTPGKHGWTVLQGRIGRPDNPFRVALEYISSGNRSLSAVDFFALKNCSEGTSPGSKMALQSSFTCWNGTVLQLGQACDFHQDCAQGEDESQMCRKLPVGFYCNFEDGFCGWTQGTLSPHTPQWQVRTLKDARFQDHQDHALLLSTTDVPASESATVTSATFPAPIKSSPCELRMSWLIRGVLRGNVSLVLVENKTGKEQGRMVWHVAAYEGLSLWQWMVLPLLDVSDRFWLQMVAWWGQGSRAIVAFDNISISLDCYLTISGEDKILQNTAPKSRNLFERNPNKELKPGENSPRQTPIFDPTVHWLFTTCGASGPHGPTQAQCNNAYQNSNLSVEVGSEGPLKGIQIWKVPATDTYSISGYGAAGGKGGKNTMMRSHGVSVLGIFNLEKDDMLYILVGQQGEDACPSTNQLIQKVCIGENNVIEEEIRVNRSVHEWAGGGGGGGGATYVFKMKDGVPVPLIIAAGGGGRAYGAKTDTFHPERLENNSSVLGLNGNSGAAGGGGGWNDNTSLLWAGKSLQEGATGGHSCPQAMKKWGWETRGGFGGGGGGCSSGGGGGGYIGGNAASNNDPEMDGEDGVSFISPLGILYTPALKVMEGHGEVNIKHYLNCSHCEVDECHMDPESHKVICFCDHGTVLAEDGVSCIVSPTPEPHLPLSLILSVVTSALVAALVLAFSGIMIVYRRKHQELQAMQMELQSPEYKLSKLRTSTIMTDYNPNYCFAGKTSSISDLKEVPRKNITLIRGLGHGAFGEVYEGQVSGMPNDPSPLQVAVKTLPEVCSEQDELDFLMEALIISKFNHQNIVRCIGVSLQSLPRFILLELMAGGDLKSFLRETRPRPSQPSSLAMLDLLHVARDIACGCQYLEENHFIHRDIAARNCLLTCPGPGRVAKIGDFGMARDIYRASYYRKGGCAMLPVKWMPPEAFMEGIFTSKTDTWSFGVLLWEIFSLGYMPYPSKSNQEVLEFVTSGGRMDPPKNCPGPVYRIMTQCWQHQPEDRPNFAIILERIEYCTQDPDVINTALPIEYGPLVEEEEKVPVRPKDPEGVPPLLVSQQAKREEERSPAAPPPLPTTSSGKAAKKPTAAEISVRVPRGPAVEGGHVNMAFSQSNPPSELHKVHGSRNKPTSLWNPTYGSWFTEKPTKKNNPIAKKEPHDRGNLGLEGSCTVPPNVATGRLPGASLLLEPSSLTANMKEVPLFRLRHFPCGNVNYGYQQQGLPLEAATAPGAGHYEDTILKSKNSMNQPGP
T3 sequence (Q9UM73 whole entry, change not shown, the tested form may be a part): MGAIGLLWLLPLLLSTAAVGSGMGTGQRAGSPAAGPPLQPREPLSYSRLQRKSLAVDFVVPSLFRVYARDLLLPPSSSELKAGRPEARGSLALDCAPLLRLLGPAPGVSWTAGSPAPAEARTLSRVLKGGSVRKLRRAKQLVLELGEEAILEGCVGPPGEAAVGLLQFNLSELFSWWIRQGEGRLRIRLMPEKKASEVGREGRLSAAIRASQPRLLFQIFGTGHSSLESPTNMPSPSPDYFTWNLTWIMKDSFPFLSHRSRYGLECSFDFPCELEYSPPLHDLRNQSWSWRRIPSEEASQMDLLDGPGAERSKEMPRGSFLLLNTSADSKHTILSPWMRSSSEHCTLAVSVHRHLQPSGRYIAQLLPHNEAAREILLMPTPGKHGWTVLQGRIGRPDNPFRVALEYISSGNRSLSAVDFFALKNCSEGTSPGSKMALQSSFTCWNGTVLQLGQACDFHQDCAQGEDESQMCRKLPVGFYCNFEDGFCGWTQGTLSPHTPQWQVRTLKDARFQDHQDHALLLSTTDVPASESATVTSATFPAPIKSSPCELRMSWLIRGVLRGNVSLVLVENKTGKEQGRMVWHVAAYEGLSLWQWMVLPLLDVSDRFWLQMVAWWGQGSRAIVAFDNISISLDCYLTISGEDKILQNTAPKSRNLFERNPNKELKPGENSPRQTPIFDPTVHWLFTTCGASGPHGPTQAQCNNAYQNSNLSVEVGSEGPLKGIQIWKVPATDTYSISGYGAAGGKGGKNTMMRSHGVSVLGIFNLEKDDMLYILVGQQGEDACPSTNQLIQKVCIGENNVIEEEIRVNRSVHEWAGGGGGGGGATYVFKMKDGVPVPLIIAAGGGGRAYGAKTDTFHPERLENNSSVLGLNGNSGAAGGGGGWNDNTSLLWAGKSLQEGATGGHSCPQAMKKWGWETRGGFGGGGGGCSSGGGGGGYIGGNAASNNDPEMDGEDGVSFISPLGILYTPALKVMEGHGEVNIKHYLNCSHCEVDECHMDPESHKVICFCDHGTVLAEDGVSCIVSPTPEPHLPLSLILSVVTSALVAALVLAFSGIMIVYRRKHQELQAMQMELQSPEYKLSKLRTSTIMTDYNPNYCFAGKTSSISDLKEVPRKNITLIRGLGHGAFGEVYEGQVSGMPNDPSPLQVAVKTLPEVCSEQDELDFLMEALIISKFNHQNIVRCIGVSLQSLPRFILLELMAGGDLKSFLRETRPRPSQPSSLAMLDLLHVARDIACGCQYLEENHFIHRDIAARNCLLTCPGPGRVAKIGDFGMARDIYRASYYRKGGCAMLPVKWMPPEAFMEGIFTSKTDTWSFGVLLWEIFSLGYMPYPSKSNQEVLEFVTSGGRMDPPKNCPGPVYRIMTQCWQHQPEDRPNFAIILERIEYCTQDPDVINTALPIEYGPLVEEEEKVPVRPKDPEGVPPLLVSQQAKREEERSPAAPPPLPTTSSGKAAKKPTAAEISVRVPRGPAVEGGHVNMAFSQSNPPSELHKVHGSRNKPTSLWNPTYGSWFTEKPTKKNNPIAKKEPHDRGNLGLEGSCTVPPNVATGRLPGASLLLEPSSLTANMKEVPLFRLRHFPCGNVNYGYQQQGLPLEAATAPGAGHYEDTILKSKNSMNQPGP

Structure (SMILES) | IC50 (Recombinant ALK kinase; [2]) [µM] | further results
O=C(O)c1ccc(-c2ccc(-c3ccc(C(=O)O)o3)cc2)o1 [r239, 5,5′-(1,4-phenylene)difuran-2-carboxylic acid] | 20 ± 2.3 | 
CC(=O)Nc1ncc(-c2ccc(-c3cnc(NC(C)=O)[nH]3)cc2)[nH]1 [r114, N,N′-(5,5′-(1,4-phenylene)bis(1H-imidazole-5,2-diyl))diacetamide] |  | IC50 (Recombinant ALK kinase): 0.75 ± 0.13 µM; IC50 (Recombinant Abl T315I): 2.1 µM
O=C(Nc1ncc(-c2ccc(-c3cccnc3)cc2Cl)s1)c1ccc(Br)o1 [r128, 5-Bromo-furan-2-carboxylic acid[5-(2-chloro-4-pyridin-3-yl-phenyl)-thiazol-2-yl]-amide] | 6.7 | 
CN1CCN(Cc2ccc(C(=O)Nc3nc(-c4ccc5c(c4)Cc4ccccc4-5)cs3)cc2)CC1 [r89] | 1.3 ± 0.2 | GI50 [1]: 36 µM
COCCCNc1nc(-c2ccc(-c3ccccc3)cc2)cs1 [r43] | 27.3 | 
O=S(=O)(Cc1ccco1)Cc1nc(-c2ccc(-c3ccccc3)cc2)cs1 [r48] | 1.6 ± 0.15 | 
O=C(Nc1nc(-c2ccc3c(c2)[nH]c2ccccc23)cs1)c1ccc(Br)o1 [r170, 5-Bromo-furan-2-carboxylic acid[4-(9H-carbazol-2-yl)-thiazol-2-yl]-amide] | 14 ± 1.6 | 
Brc1ccccc1-c1ccc(-c2nccs2)nc1 [r116, 5-(2-bromophenyl)-2-(thiazol-2-yl)pyridine] | 27 ± 1.6 | 
c1ccc(-c2ccc(-c3csc(N4CCOCC4)n3)cc2)cc1 [r85] | 16 ± 4.8 | 
O=C(Nc1nc(-c2ccc3c(c2)[nH]c2ccccc23)cs1)c1ccccc1 [r158, N-[4-(9H-Carbazol-2-yl)-thiazol-2-yl]-benzamide] | 10 ± 0.73 | 
N#C/C(=C\c1cccs1)c1nc(-c2ccc(-c3ccccc3)cc2)cs1 [r67] | 4.7 ± 0.7 | 
Cc1csc(-c2ccc(-c3csnn3)cc2)n1 [r78] | 103 | GI50 [1]: 7.6 µM
c1ccc2c(-c3ncc(-c4ccc(-c5cnc(-c6cccc7ccccc67)o5)cc4)o3)cccc2c1 [r19] | 1.2 | 
Cc1ccc(-c2csc(-c3ccc(-c4csnn4)cc3)n2)c(C)c1 [r69] | 9.3 ± 2.9 | 
O=C(Nc1ccc(-c2ccc(-c3ncco3)nc2)cn1)c1ccc(Br)o1 [r200, 5-bromo-N-(5-(6-(oxazol-2-yl)pyridin-3-yl)pyridin-2-yl)furan-2-carboxamide] | 4.8 ± 0.7 | 
Clc1ccc(-c2csc(-c3ccc(-c4csnn4)cc3)n2)cc1Cl [r35] | 7.7 ± 0.2 | 
Nc1nc(-c2ccc3c(c2)Cc2ccccc2-3)cs1 [r84] | 11 ± 1.3 | 
O=C(c1ccc(Br)o1)N(C(=O)c1ccc(Br)o1)c1ccc(-c2ccc(-c3ncco3)nc2)cn1 [r201] | 17 ± 1.5 | 
c1ccc(-c2ccc(-c3csc(-c4ccncc4)n3)cc2)cc1 [r83] | 11.7 | 
CC(C)(C)c1csc(-c2ccc(-c3csnn3)cc2)n1 [r79] | 24 ± 1.5 | GI50 [1]: 33 µM
Nc1ccc(-c2ccc(-c3cncs3)c(Cl)c2)cn1 [r235, 5-(3-cloro-4-(tiazol-5-il)fenil)piridin-2-ammina] | 21 ± 2.5 | 
O=C(Nc1nc(-c2ccc3c(c2)[nH]c2ccccc23)cs1)c1ccc(-c2ccccc2)cc1 [r169] | 17 ± 1.4 | 

Structure (SMILES) | IC50 (Recombinant ALK kinase; [2]) [µM] | further results
Cc1nc(-c2ccc(-c3csc(-c4cnccc4C(F)(F)F)n3)cc2)no1 [r81] | 46.5 | 
O=C(Nc1nc(-c2ccc(-c3cccnc3)cn2)cs1)c1ccco1 [r124] | 11 ± 0.72 | 
O=C(N/N=C/c1c[nH]c2ccccc12)c1cc(-c2ccc(-c3ccccc3)cc2)[nH]n1 [r66] | 3.6 ± 0.5 | GI50 [1]: 4.8 µM
O=C(Nc1ncc(-c2ccc3c(c2)Cc2ccccc2-3)s1)c1ccccc1I [r87, N-(5-(9H-fluoren-7-yl)thiazol-2-yl)-2-iodobenzamide] |  | IC50 (Recombinant ALK kinase): 4.3 ± 0.3 µM; IC50 (Recombinant Abl T315I): 6.43 ± 0.43 µM
O=C(Nc1nc(-c2ccc(-c3cccnc3)cn2)cs1)c1ccccc1 [r122] | 37 ± 2.7 | 
COc1ncc(-c2ccc(-c3cccnc3)cc2Cl)s1 [r262, 5-(2-cloro-4-(piridin-3-il)fenil)-2-metossitiazolo] | 3.7 ± 0.5 | 
Clc1cc(-c2cccnc2)ccc1-c1cncs1 [r120, 3-(3-Chloro-4-thiazol-5-yl-phenyl)-pyridine] | 12 ± 1.2 | 
c1cc(-c2ccc(-c3ccoc3)cc2)co1 [r236, 1,4-di(furan-3-yl)benzene] | 1.3 ± 0.4 | 
CN1CCN(Cc2ccc(C(=O)Nc3nc(-c4ccc(-c5csc(NC(=O)c6ccc(CN7CCN(C)CC7)cc6)n5)cc4)cs3)cc2)CC1 [r218, N,N′-(4,4′-(1,4-phenylene)bis(thiazolle-4,2-diyl))bis(4-((4-methylpiperazin-1-yl)methyl)benzamide)] |  | IC50 (Recombinant ALK kinase): 1.3 ± 0.5 µM
O=[N+]([O-])c1ccc(-c2nc(-c3ccc(-c4csnn4)cc3)no2)cc1 [r75] | 8.8 ± 0.85 | 
Nc1nc(-c2ccc(-c3cccnc3)cn2)cs1 [r121] | 42 ± 3.3 | 
c1ccc(-c2ccc(-c3cncs3)nc2)nc1 [r113] | 57 ± 5 | 
Cc1ccc(-c2csc(-c3ccc(-c4csnn4)cc3)n2)cc1 [r70] | 5.5 ± 2.3 | 
O=C1Nc2ccc(Br)cc2/C1=N/Nc1nc(-c2ccc(-c3ccccc3)cc2)cs1 [r49] | 1.5 ± 0.17 | GI50 [1]: 12 µM
CCOC(=O)c1csc(-c2ccc(-c3csnn3)cc2)n1 [r80] | 48 | GI50 [1]: 31 µM
Nc1nc(-c2ccc3c(c2)[nH]c2ccccc23)cs1 [r156, 4-(9H-Carbazol-2-yl)-thiazol-2-ylamine] | 82 ± 9 | 
c1cc(-c2nc(-c3ccc4c(c3)OCCCO4)cs2)ccc1-c1csnn1 [r36] | 27 | 
Fc1ccc(-c2csc(-c3ccc(-c4csnn4)cc3)n2)cc1F [r68] | 3.1 ± 0.34 | 
CN1CCN(C(=O)c2ccc(-c3ccc(-c4ccc(C(=O)N5CCN(C)CC5)o4)cc3)o2)CC1 [r237, (5-{4-[5-(4-Methyl-piperazine-1-carbonyl)-furan-2-yl]-phenyl}-furan-2-yl)-(4-methyl-piperazin-1-yl)-methasone] | 31 ± 5.7 | 
O=c1[nH]c(-c2ccc3c(c2)[nH]c2ccccc23)cs1 [r233] | 2.1 ± 0.7 | 
CN1CCN(Cc2ccc(C(=O)Nc3ncc(-c4ccc(-c5cccnc5)cc4Cl)s3)cc2)CC1 [r127, N-[5-(2-Chloro-4-pyridin-3-yl-phenyl)-thiazol-2-yl]-4-(4-methyl-piperazin-1-ylmethyl)-benzamide] | 4.6 | 
